{"source": "paper PMC8856729", "about": "(Bioorganic & Medicinal Chemistry Letters, 2022)", "system": "SARS-CoV-2 M^pro variants (all mutants and the WT)", "format": "biochemical", "note": "Read-outs that look alike come from different tables or passages of the source."}
{"smiles": "CC(C)(C)[C@H](NC(=O)C(F)(F)F)C(=O)N1C[C@H]2[C@@H]([C@H]1C(=O)N[C@H](C#N)C[C@@H]1CCNC1=O)C2(C)C", "note": "[nirmatrelvir]", "values": [{"measurement": "inhibition", "setting": "0.005 µM", "result": "below 50%"}, {"measurement": "inhibition", "setting": "0.02 µM", "result": "over 50%"}, {"measurement": "inhibition of enzymatic activity", "setting": "0.1 µM", "result": "fully inhibited"}]}
